Results reported in patent publication US12011428B2, “Compositions and methods for stimulating ventilatory and/or respiratory drive” (priority 2022, dated 2024).

How the values were obtained:
[1] = test system: freely-moving adult male Sprague—Dawley rats
[2] = test system: adult male Sprague—Dawley rats; experiment: Body temperature (BT), rectal thermistor probe; details: for Body temperature, Post-drug: conscious rats
[3] = test system: adult male Sprague—Dawley rats; experiment: Behaviors observed after injection; type: in vivo, rat; details: GSHee 100 μmol/kg IV
[4] = test system: adult male Sprague—Dawley rats; details: rat, in vivo, iv
[5] = test system: adult male Sprague—Dawley rats; experiment: Arterial blood gas measurements and A-a gradient; type: in vivo, rat; details: GSHee 100 μmol/kg IV alone
[6] = GSH 100 μmol/kg IV, % change from Pre-values
[7] = GSH 100 μmol/kg IV, sum of the 15 individual % change from pre values

| Structure (SMILES) | Freq (frequency of breathing) ([1]; GSH 100 μmol/kg IV alone) | MV (minute ventilation) ([1]; GSH 100 μmol/kg IV alone) | TV (tidal volume) ([1]; GSH 100 μmol/kg IV alone) | Frequency (breaths/min), Peak drug response, % [1, 6] | Minute Ventilation (ml/min), Peak drug response, % [1, 6] [%] | Tidal Volume (ml), Peak drug response, % [1, 6] | Frequency, Total drug response, % [1, 7] | Minute Ventilation, Total drug response, % [1, 7] [%] | Tidal Volume, Total drug response, % [1, 7] | body temperature (BT) ([2]; 5 and 15 min post-injection of GSHee 100 μmol/kg IV) | Body temperature, Post-drug ([2]; 5 min after GSHee 100 μmol/kg IV) | Body temperature, Post-drug ([2]; 15 min after GSHee 100 μmol/kg IV) | behavioral signs (movement, squealing, scratching or sniffing) after injection [3] | tail-flick latency (TFL) [4] | A-a gradient [5] | arterial blood pCO2 [5] | arterial blood pH [5] | arterial blood pO2 [5] | arterial blood sO2 [5] |
| --- | --- | --- | --- | --- | --- | --- | --- | --- | --- | --- | --- | --- | --- | --- | --- | --- | --- | --- | --- |
| N[C@@H](CCC(=O)N[C@@H](CS)C(=O)NCC(=O)O)C(=O)O [GSH, glutathione] | prompt but short-lived increase | short-lived increases | minor effects | +41% | 61 | +15% | +13% | 15 | +2% |  |  |  |  |  |  |  |  |  |  |
| CCOC(=O)CNC(=O)[C@H](CS)NC(=O)CC[C@H](N)C(=O)O [GSHee, L-glutathione ethyl ester] |  |  |  |  |  |  |  |  |  | Neither vehicle nor GSHee affected BT | 37.9 ± 0.1 | 37.9 ± 0.1 | did not display any obvious behavioral signs | did not alter TFL | did not affect | minor but significant decrease | minor but significant increases | minor but significant increases | did not affect |
